Experimental data from patent US9624211B2, “Anti-cancer compounds” (Board of Regents, The University of Texas System, priority 2013, dated 2017).

Columns and labels:
[1] = biological target: T1, Skp2 SCF complex (Homo sapiens, UniProt Q13309); assay: In vitro Skp2-mediated Akt ubiquitination assay; format: biochemical; settings: recombinant Akt, FIG. 1H
T1 construct: made in house; host or cells: 293T cells; anti-Flag immunoprecipitation, eluted with Flag peptide
Experimental: (§1) In vivo and in vitro ubiquitination assays were performed as described with modification (Lin et al., 2009; Yang et al., 2009). For in vitro ubiquitination assay, recombinant GST-Akt proteins were expressed, purified and eluted from the bacterial lysates of BL21 competent cells. Flag-Skp2 SCF complex were expressed in 293T cells, immunoprecipitated by anti-Flag antibody, and eluted from Protein A/G beads using Flag peptides according to manufacturers' standard procedures. Purified GST-Akt and Flag-SCF proteins were incubated for 3 h at 37° C. in the absence and presence of Skp2 inhibitor. After incubation, protein mixtures were diluted in E1A Buffer and the supernatant fluid was precleared with Protein A/G beads for 1 h, and immunoprecipitated overnight with anti-Flag antibody, after which Protein A/G beads were added for an additional 1 h. Beads were washed 4 times with E1A Buffer. Proteins were eluted in SDS-sample buffer and subjected to immunoblotting analysis. For in vivo ubiquitination assay, 293T cells were transfected with the indicated plasmids and cultured in the absence or presence of Skp2 inhibitor for 48 h. 6 h before harvest, cells were cultured in the presence of MG132. After cell harvest, cells were lysed by the denatured buffer (6M guanidine-HCl, 0.1M Na2HPO4/NaH2PO4, 10 mM imidazole). […]

[2] = system: prostate cancer cells; assay: Cell apoptosis assay (Annexin-V, flow cytometry); format: cell-based
Experimental: Prostate cancer cells were treated with vehicle (DMSO) or Skp2 inhibitor for 3 days, and collected and labeled with Annexin-V-FITC, followed by flow cytometry analysis. The Annexin-V+ and […] cells indicates apoptotic cell population (Q4).

[3] = system: p27 and p21 protein expression; assay: Immunoblotting of SCF substrates in prostate cancer cells; format: cell-based
Text: Cells were lysed with RIPA buffer in the presence of protease inhibitor cocktail (Roche). The following antibodies were used for immunoblotting analysis: anti-Skp2 (Invitrogen), anti-Xpress (Invitrogen), anti-p27 (BD transduction laboratories), anti-p21 (Santa Cruz), anti-β-actin (Sigma), anti-α-tubulin (Sigma), anti-phospho-Akt (Thr308) (Cell Signaling), anti-phospho-Akt (Ser473) (Cell Signaling), and anti-HA (Convance). For immunohistochemistry, tissues were fixed in 10% formalin and embedded in paraffin in accordance with standard procedures. Sections were stained with anti-Skp2 (Invitrogen), anti-p27 (Epitomics), anti-phosphoAkt (SerS473) (Cell signaling), anti-Glut1 (Abcam), and anti-Ki67 (Abcam). TUNEL staining was performed by using in situ cell death detection kit-POD (Roche).

[4] = biological target: T2, Skp1/Skp2 binding interaction (Homo sapiens, UniProt Q13309); assay: In vitro Skp2-Skp1 binding assay (GST pull-down)
T2 construct: made in house; host or cells: GST-Skp1: E. coli BL21; Skp2: in vitro translation
T2 sequence (Q13309 whole entry): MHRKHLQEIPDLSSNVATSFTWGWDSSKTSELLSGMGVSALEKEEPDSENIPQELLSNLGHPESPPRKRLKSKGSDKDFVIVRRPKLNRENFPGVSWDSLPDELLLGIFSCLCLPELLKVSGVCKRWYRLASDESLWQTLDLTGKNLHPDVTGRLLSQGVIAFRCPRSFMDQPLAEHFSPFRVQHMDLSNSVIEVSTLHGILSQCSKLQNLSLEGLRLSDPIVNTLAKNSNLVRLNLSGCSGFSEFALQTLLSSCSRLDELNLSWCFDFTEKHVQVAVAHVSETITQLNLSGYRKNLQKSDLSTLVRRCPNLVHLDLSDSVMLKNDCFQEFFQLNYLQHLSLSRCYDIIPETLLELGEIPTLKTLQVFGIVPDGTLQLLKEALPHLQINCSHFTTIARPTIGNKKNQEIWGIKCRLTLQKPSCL
Experimental: For in vitro GST-Skp1 and Skp2 interaction, GST-Skp1 proteins purified from the bacterial lysates of BL21 competent cells transformed with pGEX-4X1-Skp1 using the Glutathione-Agarose beads according to the manufacturer's standard procedures. The GST-Skp1 proteins bound to glutathione Sepharose beads (Amersham Biosciences) were then incubated with the in vitro translated [35^S]-Skp2 for 2 hours at 4° C. in the interaction buffer with or without compound #25 (20 mM HEPES, PH 7.9, 150 mM KCl. 5 mM EDTA, 0.5 mM DTT, 0.1% (v/v) Nonidet p-40, 0.1% (w/v) BSA, 1 mM PMSF, and 10% Glycerol), washed by the NETN buffer (20 mM Tris, pH 8.0, 100 mM NaCl, 6 mM MgCl2, 1 mM EDTA, 0.5% Nonidet P-40, 1 mM DTT, 8% glycerol, 1 mM PMSF) 4 times, and subjected to 8% SDS-PAGE, followed by autoradiography.
Below are the original lead compound and 11 similar compounds that were tested for their ability to block the Skp1/Skp2 binding interaction in an in vitro assay. The quantification was made on western blot/images, and the percentages represent the amount of intact Skp1/Skp2 remaining after treatment. In vitro binding assays were performed. For in vitro GST-Skp1 and Skp2 interaction, GST-Skp1 proteins purified from the bacterial lysates of BL21 competent cells transformed with pGEX-4X1-Skp1 using the Glutathione-Agarose beads were performed according to the manufacturer's standard procedures. The GST-Skp1 proteins bound to glutathione Sepharose beads (Amersham Biosciences) were then incubated with the in vitro translated [35^S]-Skp2 for 2 hours at 4° C. in the interaction buffer with or without lead compound and 11 similar compounds (20 mM HEPES, PH 7.9, 150 mM KCl. 5 mM EDTA, 0.5 mM DTT, 0.1% (v/v) Nonidet p-40, 0.1% (w/v) BSA, 1 mM PMSF, and 10% Glycerol), washed by the NETN buffer (20 mM Tris, pH 8.0, 100 mM NaCl, 6 mM MgCl2, 1 mM EDTA, 0.5% Nonidet P-40, 1 mM DTT, 8% glycerol, 1 mM PMSF) 4 times, and subjected to 8% SDS-PAGE, followed by autoradiography. The data presented in Table 1 below was obtained using the Skp1/Skp2 binding affinity assay. The quantification percentage results listed below are based on the western blot results.

[5] = system: PC3 xenograft tumors; assay: PC3 tumor xenograft in nude mice; format: in vivo
Experimental: Nude mice bearing PC3 or A549 xenograft tumors (around 100 mm^3) were administrated with vehicle or 80 mg/kg compound #25 on a daily basis. Tumor size was measured weekly with a caliper, and tumor volume was determined with the standard formula: L×W2×0.52, where L is the longest diameter and W the shortest diameter.

[6] = biological target: T3, Skp2 Trp127Ala mutant (Homo sapiens, UniProt Q13309, W127A); assay: In vivo p27 ubiquitination assay, Skp2 Trp127Ala mutant; format: cell-based
T3 construct: expressed in transfected cells; host or cells: 293T
T3 sequence (Q13309 whole entry W127A): as the sequence (Q13309 whole entry) above, with W127A counted along it
Experimental: as §1

T1 sequence (Q13309 whole entry, one chain of several): as the sequence (Q13309 whole entry) above

disruption of Skp2-Skp1 interaction ([4]; 5 μM): completely disrupt Skp2-Skp1 interaction | Normalized w/ vehicle treatment ([4]; amount of intact Skp1/Skp2 remaining after treatment, quantified on western blot/images): 10% | E3 ligase activity of Skp2 Trp127Ala mutant [6]: abrogated E3 ligase activity
Structure (SMILES): CCc1cc2c(=O)c(-c3nc4ccccc4s3)coc2c(CN2CCCCC2)c1O [compound #25, 3-(1,3-benzothiazol-2-yl)-6-ethyl-7-hydroxy-8-(1-piperidinylmethyl)-4H-chromen-4-one]
Skp2-mediated Akt ubiquitination in vitro [1]: attenuated Skp2-mediated Akt ubiquitination | cell apoptosis [2]: elicited cell apoptosis | stabilization/induction of SCF substrates ([3]; Skp2, Fbw7 and β-TrCP substrates, FIGS. 3E and 11A): selectively stabilized Skp2 substrates | endogenous p27 and p21 protein expression ([3]; prostate cancer cells): induced endogenous p27 and p21 protein expression | interaction between WT Skp2 and Skp1 ([4]; WT Skp2, FIG. 2D): prevented the interaction between WT Skp2 and Skp1 | prostate tumor growth in vivo ([5]; IP injection): potent effect | p27, p21, apoptosis, Akt activation and Glut1 in prostate tumor tissues ([5]; histological analysis): induced expression of p27 and p21, apoptosis, and suppressed Akt activation and Glut1 expression
